Measured values published in patent US20260201438A1 (priority 2022, published 2026).
Converted amounts (≈) assume the structure as drawn.

What was measured:
E. coli ATCC 25922 [1] = assay: reference broth microdilution (rBMD); format: cell-based; details: Escherichia coli, ATCC25922, read-out: MIC rBMD, E. coli ATCC 25922, isolates from urine cultures; geometric mean, n = 3
E. coli ATCC 25922 [2] = details: CLSI M100-Ed35; cited from earlier work
S. aureus ATCC 29213 = details: CLSI M100-Ed35; cited from earlier work

Cc1nnc(SCC2=C(C(=O)O)N3C(=O)[C@@H](NC(=O)Cn4cnnn4)[C@H]3SC2)s1 [Cefazolin]
MIC (E. coli ATCC 25922 [1]): 2 µg/mL (≈ 4.4 µM)

CO/N=C(\C(=O)N[C@@H]1C(=O)N2C(C(=O)O)=C(CSc3nc(=O)c(=O)[nH]n3C)CS[C@H]12)c1csc(N)n1 [Ceftriaxone]
MIC CLSI QC Range (E. coli ATCC 25922 [2]): 0.03 to 0.12 µg/mL
MIC CLSI QC Range (S. aureus ATCC 29213): 1.0 to 8.0 µg/mL

C[C@@H](O)[C@H]1C(=O)N2C(C(=O)O)=C(S[C@@H]3CN[C@H](C(=O)N(C)C)C3)[C@H](C)[C@H]12 [Meropenem]
MIC CLSI QC Range (E. coli ATCC 25922 [2]): 0.008 to 0.06 µg/mL
MIC CLSI QC Range (S. aureus ATCC 29213): 0.03 to 0.12 µg/mL

CO[C@@]1(NC(=O)Cc2cccs2)C(=O)N2C(C(=O)O)=C(COC(N)=O)CS[C@@H]21 [Cefoxitin]
MIC CLSI QC Range (S. aureus ATCC 29213): 1.0 to 4.0 µg/mL

CO/N=C(\C(=O)N[C@@H]1C(=O)N2C(C(=O)O)=C(COC(N)=O)CS[C@H]12)c1ccco1 [Cefuroxime]
MIC CLSI QC Range (E. coli ATCC 25922 [2]): 2.0 to 8.0 µg/mL
